Holding throughout (type): biochemical
The target of one experiment is T1, GLP (Homo sapiens, UniProt Q9H9B1).
T1 sequence (Q9H9B1 1-1298): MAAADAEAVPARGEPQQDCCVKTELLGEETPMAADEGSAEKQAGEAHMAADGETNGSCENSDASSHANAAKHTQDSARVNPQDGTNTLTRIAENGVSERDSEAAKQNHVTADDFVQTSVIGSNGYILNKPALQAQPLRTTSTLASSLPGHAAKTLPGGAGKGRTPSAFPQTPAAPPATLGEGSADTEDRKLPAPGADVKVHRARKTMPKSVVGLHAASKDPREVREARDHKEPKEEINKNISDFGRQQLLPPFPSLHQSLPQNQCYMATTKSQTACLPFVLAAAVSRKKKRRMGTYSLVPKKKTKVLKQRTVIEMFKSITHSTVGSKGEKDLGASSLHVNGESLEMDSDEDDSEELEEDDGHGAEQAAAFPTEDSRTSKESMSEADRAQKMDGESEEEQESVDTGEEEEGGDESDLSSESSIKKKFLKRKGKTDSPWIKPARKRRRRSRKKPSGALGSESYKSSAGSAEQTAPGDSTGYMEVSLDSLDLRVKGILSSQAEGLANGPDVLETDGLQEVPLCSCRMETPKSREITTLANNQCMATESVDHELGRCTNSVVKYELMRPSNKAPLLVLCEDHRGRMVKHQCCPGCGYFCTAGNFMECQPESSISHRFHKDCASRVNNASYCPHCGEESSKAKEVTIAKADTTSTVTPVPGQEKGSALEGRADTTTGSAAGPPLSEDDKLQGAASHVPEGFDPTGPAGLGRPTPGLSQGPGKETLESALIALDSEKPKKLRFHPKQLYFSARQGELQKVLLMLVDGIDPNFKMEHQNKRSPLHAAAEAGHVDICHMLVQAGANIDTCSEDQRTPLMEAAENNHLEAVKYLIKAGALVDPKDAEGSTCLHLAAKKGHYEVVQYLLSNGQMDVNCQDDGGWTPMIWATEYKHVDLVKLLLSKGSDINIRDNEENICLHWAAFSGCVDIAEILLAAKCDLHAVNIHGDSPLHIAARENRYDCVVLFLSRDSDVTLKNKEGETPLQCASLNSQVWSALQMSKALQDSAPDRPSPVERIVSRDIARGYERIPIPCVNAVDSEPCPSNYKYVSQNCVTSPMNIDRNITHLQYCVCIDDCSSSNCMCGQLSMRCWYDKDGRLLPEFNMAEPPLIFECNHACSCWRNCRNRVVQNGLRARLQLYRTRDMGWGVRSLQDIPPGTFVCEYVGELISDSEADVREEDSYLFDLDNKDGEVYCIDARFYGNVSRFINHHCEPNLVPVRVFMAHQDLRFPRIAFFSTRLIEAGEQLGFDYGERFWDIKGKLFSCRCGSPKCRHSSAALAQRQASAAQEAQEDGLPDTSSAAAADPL
Put plainly: Radiometric methyltransferase assay, GLP. To be noted: GLP 10 nM; compound 10 μM, 1 μM, or 0.1 μM; FIG. 13. Here is the method:
(§1) Reagents: Compound 16A was prepared by the method described in Example 4 and illustrated in FIG. 5. The Compounds 20A-iv and 20A-iii were prepared according to methods described in Example 6 and illustrated in FIG. 7. Enzymes were obtained from the Cayman Catalog with the exception of PRMT4 and PRMT6, which were produced in baculovirus and purified to near homogeneity using Ni-affinity chromatography. Human core histones were purified from HeLa nuclear pellet per the method of Coté et al. S-adenosylmethionine (SAM) was obtained from Sigma-Aldrich (Cat #A7007) and S-[methyl-3H]-SAM was obtained from Perkin-Elmer ([…]). Methods: […] To this was added enzyme diluted to provide a final assay concentration (GLP: 10 nM; PRMT1: 100 nM; SET7/9: 120 nM; PRDM9: 120 nM; PRMT4: 150 nM; PRMT6: 120 nM; G9a: 200 nM) and the compound was allowed to preincubate for 10 minutes at room temperature. […] Samples were mixed immediately after quenching and transferred to a 96-well GFC Uni-Filter microtiter filter plate (Perkin Elmer, Cat#6005174) that contained 50 μl of 20% TCA. Samples were allowed to precipitate for at least 5 minutes at room temperature. The samples were filtered onto the GFC membrane and washed four times with 100 μl of 10% TCA and once with 100 μl of 95% EtOH. To each well was added 25 μl of MicroScint-20 (Perkin-Elmer Cat#6013621) and samples were analyzed using a TopCount NXT microplate scintillation counter. The experiment was performed one time in duplicate for all compound concentrations tested and in triplicate for the vehicle and no enzyme controls. All data was analyzed in GraphPad Prism (v. 5.04).

The next experiment addresses T2, PRMT1 (Homo sapiens, UniProt Q99873).
T2 construct: purchased Cayman
The experiment can be described thus: Radiometric methyltransferase assay, PRMT1. To be noted: PRMT1 100 nM; compound 10 μM, 1 μM, or 0.1 μM; FIG. 13. As to the method:
as §1

In a further experiment the target is T3, PRDM9 (Homo sapiens, UniProt Q9NQV7).
T3 construct: purchased Cayman
T3 sequence (Q9NQV7 whole entry, species assumed): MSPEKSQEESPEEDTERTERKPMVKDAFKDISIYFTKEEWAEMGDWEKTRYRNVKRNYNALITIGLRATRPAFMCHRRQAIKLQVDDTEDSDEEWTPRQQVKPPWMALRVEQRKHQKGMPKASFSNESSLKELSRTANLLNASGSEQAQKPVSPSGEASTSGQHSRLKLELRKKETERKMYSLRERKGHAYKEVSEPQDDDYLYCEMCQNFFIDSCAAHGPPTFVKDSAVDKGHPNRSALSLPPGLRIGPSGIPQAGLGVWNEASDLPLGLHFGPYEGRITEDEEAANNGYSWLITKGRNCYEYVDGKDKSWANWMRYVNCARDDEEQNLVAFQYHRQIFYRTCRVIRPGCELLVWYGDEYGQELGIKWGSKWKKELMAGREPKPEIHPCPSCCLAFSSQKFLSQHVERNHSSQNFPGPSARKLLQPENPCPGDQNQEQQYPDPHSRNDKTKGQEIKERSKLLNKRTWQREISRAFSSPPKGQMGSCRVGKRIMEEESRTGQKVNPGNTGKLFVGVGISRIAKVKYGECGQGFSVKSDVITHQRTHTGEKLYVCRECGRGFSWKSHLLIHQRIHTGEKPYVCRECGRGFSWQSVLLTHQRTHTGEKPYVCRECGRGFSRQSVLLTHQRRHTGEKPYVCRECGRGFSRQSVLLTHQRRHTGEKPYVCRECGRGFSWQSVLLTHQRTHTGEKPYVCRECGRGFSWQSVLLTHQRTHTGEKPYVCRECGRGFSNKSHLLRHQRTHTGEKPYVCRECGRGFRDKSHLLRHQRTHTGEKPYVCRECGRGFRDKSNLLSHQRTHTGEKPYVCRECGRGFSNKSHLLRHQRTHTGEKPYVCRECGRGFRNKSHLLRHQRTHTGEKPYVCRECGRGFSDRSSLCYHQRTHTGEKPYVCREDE
The experiment can be described thus: Radiometric methyltransferase assay, PRDM9. To be noted: PRDM9 120 nM; compound 10 μM, 1 μM, or 0.1 μM; FIG. 13. As to the method: as §1

For a further experiment, the target named is T4, PRMT6 (Homo sapiens, UniProt Q96LA8).
T4 construct: made in house; host or cells: baculovirus expression
T4 sequence (Q96LA8 whole entry, species assumed): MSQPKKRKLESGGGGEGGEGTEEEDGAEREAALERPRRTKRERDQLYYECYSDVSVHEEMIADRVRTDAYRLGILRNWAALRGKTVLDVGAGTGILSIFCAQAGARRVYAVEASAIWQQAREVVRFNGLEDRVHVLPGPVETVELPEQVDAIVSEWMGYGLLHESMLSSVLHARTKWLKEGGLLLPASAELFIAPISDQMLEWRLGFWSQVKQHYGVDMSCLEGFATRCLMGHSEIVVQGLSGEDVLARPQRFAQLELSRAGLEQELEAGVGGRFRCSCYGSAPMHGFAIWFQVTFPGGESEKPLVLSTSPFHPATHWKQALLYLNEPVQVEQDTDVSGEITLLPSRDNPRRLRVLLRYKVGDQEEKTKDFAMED
Put plainly: Radiometric methyltransferase assay, PRMT6. To be noted: PRMT6 120 nM; compound 10 μM, 1 μM, or 0.1 μM; FIG. 13. Here is the method:
as §1

T2 sequence (Q99873 whole entry): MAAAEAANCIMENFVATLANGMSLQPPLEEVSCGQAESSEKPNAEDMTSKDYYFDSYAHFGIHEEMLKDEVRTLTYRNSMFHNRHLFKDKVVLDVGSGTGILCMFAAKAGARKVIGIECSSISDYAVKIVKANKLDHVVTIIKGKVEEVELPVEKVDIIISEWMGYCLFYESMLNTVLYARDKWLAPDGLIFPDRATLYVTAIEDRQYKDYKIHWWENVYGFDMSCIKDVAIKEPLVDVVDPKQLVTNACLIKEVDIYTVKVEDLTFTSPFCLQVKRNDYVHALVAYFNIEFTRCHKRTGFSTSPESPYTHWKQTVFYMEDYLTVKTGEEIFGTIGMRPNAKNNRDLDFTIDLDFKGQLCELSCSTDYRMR

As to `CSC[C@H]1O[C@@H](n2cnc3c(N)nc(NCCNC(=O)OC(C)(C)C)nc32)[C@H](O)[C@@H]1O` [Compound 16A, tert-butyl (2-((6-amino-9-((2R,3R,4S,5S)-3,4-dihydroxy-5-((methylthio)methyl)tetrahydrofuran-2-yl)-9H-purin-2-yl)amino)ethyl)carbamate], the “inhibition of enzymatic activity” value against GLP was “not dramatically altering the activity”; at PRMT1, “inhibits”; against PRDM9 it was “inhibits”; against PRMT6 it was “not dramatically altering the activity”.

`CCNC[C@H]1O[C@@H](n2cnc3c(N)nc(Cl)nc32)[C@H](O)[C@@H]1O` [Compound 20A-iv, 2-chloroadenosine-5′-N-ethylamine]: the “inhibition of enzymatic activity” value against GLP, against PRMT1, at PRDM9 and at PRMT6 was “did not show appreciable inhibition” each time.

Take `CCNC(=O)[C@H]1O[C@@H](n2cnc3c(N)nc(Cl)nc32)[C@H](O)[C@@H]1O` [Compound 20A-iii, 2-chloroadenosine-5′-N-ethylcarboxamide]: the “inhibition of enzymatic activity” value at GLP was “did not show appreciable inhibition”; at PRMT1 it was “did not show appreciable inhibition”; at PRDM9, “did not show appreciable inhibition”; on PRMT6, “some modest inhibition”.

(Values after patent US9120820B2, “Fluorescent molecular probes for use in assays that measure test compound competitive binding with SAM-utilizing proteins” (CAYMAN CHEMICAL COMPANY, INCORPORATED, priority 2011, dated 2015).)
